{"source": "patent US20140294856A1", "about": "“COMBINATION TREATMENT COMPRISING A HDAC6 INHIBITOR AND AN AKT INHIBITOR” (priority 2011, published 2014)", "key": {"HCT116 cells [1]": {"tested_on": "HCT116 cells", "test": "Combination studies, SRB assay, combination index (CalcuSyn)", "assay_type": "cell-based, human"}, "HCT116 cells [2]": {"tested_on": "HCT116 cells", "test": "Phospho-AKT levels by western blotting", "assay_type": "cell-based, human", "details": "for pIC50: Homo sapiens, HCT-116"}, "HCT116 tumours": {"tested_on": "HCT116 tumours", "test": "Phospho-AKT levels in HCT116 tumours", "assay_type": "in vivo, mice", "details": "single injection 25 mg/kg"}, "[3]": {"tested_on": "HCT116 human colon cancer xenograft", "details": "BEZ-235 alone 20 mg/kg/d"}, "[4]": {"test": "Cytotoxicity of compounds of the invention (data not shown)", "assay_type": "cell-based", "source_text": "HDAC-C1B also appears to be a promising drug candidate."}, "HCT116 cells [5]": {"tested_on": "HCT116 cells", "test": "Acetylation biomarkers by western blotting (with washout)", "assay_type": "cell-based, human", "description": "FIG. 1. HDAC-C1A irreversible activity. A. […] inhibitory activity of HDAC-C1A was tested using HeLa nuclear extracts and compared to the negative (reversible) control HDAC-C1B. B Growth inhibitory effect of the different compounds in HCT-116 cells at indicated time and compared to growth inhibitory after 72 hours of incubation.\nHSP90 protein expression was not altered (FIG. 2)."}, "HCT116 cells [6]": {"tested_on": "HCT116 cells", "test": "Acetylated PTEN and PTEN expression", "assay_type": "cell-based, human", "description": "FIG. 12. HDAC-C1A treatment is associated with an increase of phopsho-AKT that can be reversed by PI3K/AKT/mTOR inhibitors. […] Similarly, Phospho-Pras 40 seems to increase following treatment with HDAC-C1A. Densitometry data could reinforce this statement (ratio between the total form and the Phospho form of Pras40 that decreases at 24 hours). […] No difference could be seen in endometrial cancer cell line, […]. C. […] E. BEZ-235 can fully reverse the increase of Phospho-AKT mediated by HDAC-C1A in HCT-116 cells. BEZ-235 and HDAC-C1A were co-incubated at the indicated time and concentrations.\nFIG. 17. A. Dose and time impact of Tubastatin A on acetylated form of tubulin and histones H3 and H4 and on phospho-AKT levels that could be reversed with BEZ-235 in HCT-116 cells. […] HCT116 were immunoprecipitation with PTEN and stained with HDAC1 or HDAC6, immunoprecipitation with HDAC6 and stained with PTEN. No HDAC1 could have been detected in contrast with HDAC6. There was no effect of the different inhibitors on the different protein levels.\nPTEN protein expression was not altered. In vivo, on the gene array, the mRNA levels of PTEN were not altered in HCT116 xenograft model following treatment with HDAC-C1A after 1 and 14 days when compared with vehicle treated group (FIG. 7).\nWe have shown that HDAC-C1A is associated with increased acetylation of α-tubulin, acetyl HSP90 and acetyl PTEN with only a minor effect on the regulation of the genes (less than 0.7% of the genes have been de-regulated after 14 days of treatment in vivo). We believe that the acetylation of PTEN, via the inhibition of HDAC6, leads to an increase of P-AKT. […] No effect of BEZ235 could be seen on the acetylated status of α-tubulin and histones H3 and H4."}, "in vitro": {"test": "in vitro", "details": "human, Caco-2"}, "A2780 cells": {"tested_on": "A2780 cells", "test": "Impact of glutathione co-incubation on survival", "details": "compound 1 μM"}, "MRP1": {"biological_target": "MRP1 (Homo sapiens, UniProt P33527)", "sequence (P33527 whole entry)": "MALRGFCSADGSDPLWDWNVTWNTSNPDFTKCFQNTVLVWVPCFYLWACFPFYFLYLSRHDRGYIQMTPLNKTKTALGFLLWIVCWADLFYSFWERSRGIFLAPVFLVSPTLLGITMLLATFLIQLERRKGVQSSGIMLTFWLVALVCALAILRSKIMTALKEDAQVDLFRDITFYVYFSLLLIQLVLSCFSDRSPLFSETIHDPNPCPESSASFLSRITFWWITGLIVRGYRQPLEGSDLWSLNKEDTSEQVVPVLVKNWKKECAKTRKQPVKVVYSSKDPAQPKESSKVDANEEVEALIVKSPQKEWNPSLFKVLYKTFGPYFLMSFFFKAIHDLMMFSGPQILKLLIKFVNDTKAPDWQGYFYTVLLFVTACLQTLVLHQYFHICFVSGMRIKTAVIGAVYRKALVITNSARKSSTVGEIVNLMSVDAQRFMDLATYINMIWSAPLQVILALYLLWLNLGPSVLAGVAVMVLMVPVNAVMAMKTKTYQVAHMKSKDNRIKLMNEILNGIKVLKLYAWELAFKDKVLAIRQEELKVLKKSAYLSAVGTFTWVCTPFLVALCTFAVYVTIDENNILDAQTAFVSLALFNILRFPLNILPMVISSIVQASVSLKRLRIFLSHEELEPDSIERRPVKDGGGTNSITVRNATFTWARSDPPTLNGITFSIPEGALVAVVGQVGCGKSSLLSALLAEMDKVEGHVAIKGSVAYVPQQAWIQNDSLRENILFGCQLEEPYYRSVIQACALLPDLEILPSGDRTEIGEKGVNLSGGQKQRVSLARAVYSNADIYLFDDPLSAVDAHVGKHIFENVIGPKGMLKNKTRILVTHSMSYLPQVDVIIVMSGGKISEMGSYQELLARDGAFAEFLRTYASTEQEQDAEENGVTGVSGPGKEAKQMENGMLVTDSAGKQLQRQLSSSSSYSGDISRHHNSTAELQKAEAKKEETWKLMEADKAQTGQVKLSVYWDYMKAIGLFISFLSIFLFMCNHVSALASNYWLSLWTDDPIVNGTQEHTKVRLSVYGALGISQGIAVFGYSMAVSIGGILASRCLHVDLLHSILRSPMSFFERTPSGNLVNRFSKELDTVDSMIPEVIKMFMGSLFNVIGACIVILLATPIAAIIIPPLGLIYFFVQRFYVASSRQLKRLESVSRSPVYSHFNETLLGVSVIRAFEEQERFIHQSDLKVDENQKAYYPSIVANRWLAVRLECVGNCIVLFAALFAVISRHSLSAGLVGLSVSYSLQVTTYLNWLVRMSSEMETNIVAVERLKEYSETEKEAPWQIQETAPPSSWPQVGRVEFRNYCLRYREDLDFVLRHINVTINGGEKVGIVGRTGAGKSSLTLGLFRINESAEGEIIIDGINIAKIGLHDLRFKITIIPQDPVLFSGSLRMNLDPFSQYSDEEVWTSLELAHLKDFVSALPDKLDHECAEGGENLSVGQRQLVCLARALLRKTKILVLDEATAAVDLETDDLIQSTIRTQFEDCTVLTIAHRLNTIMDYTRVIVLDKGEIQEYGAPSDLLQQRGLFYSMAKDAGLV", "test": "Impact of MRP1 on cytotoxicity, MK-571 pre-treatment in A549 cells", "experimental": "The impact of ABC transporters on the cytotoxicity of HDAC-C1A was assessed using cell lines with differential expression of the ABC transporters and by using inhibitors."}, "A549 cells": {"tested_on": "A549 cells", "test": "Impact of BSO (GSH depletion) on growth inhibition, SRB assay", "assay_type": "cell-based", "details": "10 μM BSO for 24 hours"}, "[7]": {"tested_on": "CHO cells deficient in DNA repair", "test": "Growth inhibition in cell lines deficient in DNA repair machinery", "assay_type": "cell-based"}, "ABCG2": {"biological_target": "T1, ABCG2 (Homo sapiens, UniProt Q9UNQ0)", "T1 sequence (Q9UNQ0 1-655)": "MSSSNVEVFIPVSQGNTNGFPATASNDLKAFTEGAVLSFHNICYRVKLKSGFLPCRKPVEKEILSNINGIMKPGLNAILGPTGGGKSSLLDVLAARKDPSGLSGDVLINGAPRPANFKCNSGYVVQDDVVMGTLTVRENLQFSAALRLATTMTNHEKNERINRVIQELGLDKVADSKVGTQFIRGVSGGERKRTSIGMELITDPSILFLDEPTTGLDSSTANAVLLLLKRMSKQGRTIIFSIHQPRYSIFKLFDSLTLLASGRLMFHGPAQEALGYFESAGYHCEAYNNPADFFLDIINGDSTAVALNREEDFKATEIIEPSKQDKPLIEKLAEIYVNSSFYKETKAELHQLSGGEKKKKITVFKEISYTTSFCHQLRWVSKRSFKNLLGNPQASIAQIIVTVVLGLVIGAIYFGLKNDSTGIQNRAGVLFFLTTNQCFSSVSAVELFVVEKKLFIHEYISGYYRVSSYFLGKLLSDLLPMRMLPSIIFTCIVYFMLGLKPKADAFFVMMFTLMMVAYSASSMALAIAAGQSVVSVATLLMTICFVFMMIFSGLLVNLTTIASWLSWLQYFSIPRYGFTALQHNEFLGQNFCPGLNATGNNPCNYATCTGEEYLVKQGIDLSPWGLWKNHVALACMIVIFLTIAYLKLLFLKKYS"}, "P-gp": {"biological_target": "P-gp (Homo sapiens, UniProt P08183)", "sequence (P08183 whole entry)": "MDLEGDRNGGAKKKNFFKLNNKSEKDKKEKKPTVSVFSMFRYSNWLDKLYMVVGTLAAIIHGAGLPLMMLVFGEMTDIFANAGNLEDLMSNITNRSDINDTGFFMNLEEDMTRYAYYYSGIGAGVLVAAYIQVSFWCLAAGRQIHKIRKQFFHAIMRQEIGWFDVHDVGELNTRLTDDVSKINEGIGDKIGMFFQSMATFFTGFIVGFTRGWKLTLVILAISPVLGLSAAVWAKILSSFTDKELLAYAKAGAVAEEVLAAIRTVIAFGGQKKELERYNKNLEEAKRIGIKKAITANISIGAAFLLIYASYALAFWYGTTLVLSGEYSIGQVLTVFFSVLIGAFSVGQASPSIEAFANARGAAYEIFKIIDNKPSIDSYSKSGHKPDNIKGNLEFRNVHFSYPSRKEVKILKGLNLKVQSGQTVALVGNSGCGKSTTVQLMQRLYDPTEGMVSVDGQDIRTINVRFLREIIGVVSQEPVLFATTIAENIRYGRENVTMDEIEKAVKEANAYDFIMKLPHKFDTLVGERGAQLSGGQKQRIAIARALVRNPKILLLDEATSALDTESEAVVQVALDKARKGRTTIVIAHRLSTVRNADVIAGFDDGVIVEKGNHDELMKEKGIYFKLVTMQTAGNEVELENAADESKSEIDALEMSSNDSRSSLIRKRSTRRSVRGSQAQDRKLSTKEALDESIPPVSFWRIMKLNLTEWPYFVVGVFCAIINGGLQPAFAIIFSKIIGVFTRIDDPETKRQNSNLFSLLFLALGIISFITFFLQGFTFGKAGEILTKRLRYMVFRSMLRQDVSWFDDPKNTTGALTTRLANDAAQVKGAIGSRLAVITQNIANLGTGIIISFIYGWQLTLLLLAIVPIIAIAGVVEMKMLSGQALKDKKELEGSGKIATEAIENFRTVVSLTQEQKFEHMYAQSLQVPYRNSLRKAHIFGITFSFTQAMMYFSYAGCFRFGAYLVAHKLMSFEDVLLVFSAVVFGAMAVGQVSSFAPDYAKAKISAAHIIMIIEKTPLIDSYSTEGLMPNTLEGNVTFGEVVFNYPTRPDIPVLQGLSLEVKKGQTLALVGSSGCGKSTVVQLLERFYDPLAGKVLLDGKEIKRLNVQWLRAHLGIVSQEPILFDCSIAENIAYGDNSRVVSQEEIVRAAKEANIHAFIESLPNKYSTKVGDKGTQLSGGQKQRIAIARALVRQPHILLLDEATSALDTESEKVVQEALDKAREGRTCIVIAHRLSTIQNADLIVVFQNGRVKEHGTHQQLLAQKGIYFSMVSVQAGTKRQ", "details": "mouse"}, "[8]": {"details": "homologous recombination repair"}}, "note": "pIC50: −log10 of the molar value. Read-outs that look alike come from different tables or passages of the source."}
{"smiles": "O=c1[nH]cc(F)c(=O)[nH]1", "note": "[5FU]", "values": [{"measurement": "combination effect with HDAC-C1A on growth inhibition", "setting": "HCT116 cells [1]; HCT116, 72 hours", "result": "additive effect"}]}
{"smiles": "CN(C)CC[C@H](CSc1ccccc1)Nc1ccc(S(=O)(=O)NC(=O)c2ccc(N3CCN(Cc4ccccc4-c4ccc(Cl)cc4)CC3)cc2)cc1[N+](=O)[O-]", "note": "[ABT-737]", "values": [{"measurement": "combination effect with HDAC-C1A on growth inhibition", "setting": "HCT116 cells [1]; HCT116, 72 hours", "result": "Synergistic effect"}]}
{"smiles": "Cn1c(=O)n(-c2ccc(C(C)(C)C#N)cc2)c2c3cc(-c4cnc5ccccc5c4)ccc3ncc21", "note": "[BEZ-235]", "values": [{"measurement": "combination effect with HDAC-C1A on growth inhibition", "setting": "HCT116 cells [1]; HCT116, 72 hours", "result": "Synergistic effect"}, {"measurement": "P-AKT levels, single agent", "setting": "HCT116 cells [2]", "result": "dose dependent decrease"}, {"measurement": "pIC50", "setting": "HCT116 cells [2]; 4 hours treatment, read-out: IC50 for inhibition of P-AKT", "result": 8.00}, {"measurement": "pIC50", "setting": "HCT116 cells [2]; added to Tubastatin A, read-out: IC50 for reversal of Tubastatin A-induced P-AKT", "result": 8.00}, {"measurement": "pIC50", "setting": "HCT116 cells [2]; combined with 10 μM HDAC-C1A, read-out: IC50 for P-AKT when combined with HDAC-C1A", "result": 7.30}, {"measurement": "effect on acetylated status of α-tubulin and histones H3 and H4", "setting": "HCT116 cells [2]; added to Tubastatin A", "result": "No effect"}, {"measurement": "reversal of the increase of Phospho-AKT mediated by HDAC-C1A", "setting": "HCT116 cells [2]; co-incubated with HDAC-C1A", "result": "fully reverse"}, {"measurement": "P-AKT in tumours", "setting": "HCT116 tumours; 2 hours after treatment", "result": "Persistent inhibition"}, {"measurement": "P-AKT in tumours", "setting": "HCT116 tumours; by 30 minutes", "result": "rapid down-regulation"}, {"measurement": "P-AKT in tumours", "setting": "HCT116 tumours; from 6 hours post treatment", "result": "partial recovery to basal levels"}, {"measurement": "TGD2x", "setting": "[3]", "result": "3.4 ± 1.9", "unit": "days"}, {"measurement": "TGI", "setting": "[3]", "result": 21, "unit": "%"}]}
{"smiles": "CCN(CC)c1ccc(S(=O)(=O)Nc2ccc(/C=C(C)/C=C/C(=O)NO)cc2)cc1", "note": "[HDAC-C1B]", "values": [{"measurement": "cytotoxic potency relative to HDAC-C1A", "setting": "[4]", "result": "approximately 1.5 fold"}]}
{"smiles": "COc1ccc(C2=N[C@@H](c3ccc(Cl)cc3)[C@@H](c3ccc(Cl)cc3)N2C(=O)N2CCNC(=O)C2)c(OC(C)C)c1", "note": "[Nutlin-3]", "values": [{"measurement": "combination effect with HDAC-C1A on growth inhibition", "setting": "HCT116 cells [1]; HCT116, 72 hours", "result": "additive effect"}]}
{"smiles": "O=C(CCCCCCC(=O)Nc1ccccc1)NO", "note": "[SAHA, suberanoyl hydroxamic acid, reference compound]", "values": [{"measurement": "acetylation markers at low concentration and early time point", "setting": "HCT116 cells [5]; 1 μM and 4 hours", "result": "opposite"}, {"measurement": "acetylation of histone H3, H4 and α-tubulin after washout", "setting": "HCT116 cells [5]; treatment 4 hours, then washout", "result": "lost by 4 h"}, {"measurement": "concentration of LY-294002 needed to synergise", "setting": "HCT116 cells [1]", "result": "greater than 4 μM"}, {"measurement": "combination effect with rapamycin at ED50", "setting": "HCT116 cells [1]; concentrations below 7.5 μM", "result": "antagonistic effect"}, {"measurement": "effect on P-AKT", "setting": "HCT116 cells [2]; 10 μM", "result": "no effect"}, {"measurement": "acetyl form of PTEN", "setting": "HCT116 cells [6]; 4 h and 24 h, 1 μM and 10 μM", "result": "no effect"}, {"measurement": "Papp A→B", "setting": "in vitro", "result": 14, "unit": "×10⁻⁶ cm/s"}, {"measurement": "effect of GSH on cytotoxicity", "setting": "A2780 cells", "result": "antagonistic effect"}, {"measurement": "substrate of MRP1", "setting": "MRP1", "result": "non-substrates"}]}
{"smiles": "CN1CCc2c(c3ccccc3n2Cc2ccc(C(=O)NO)cc2)C1", "note": "[Tubastatin A]", "values": [{"measurement": "concentration of LY-294002 needed to synergise", "setting": "HCT116 cells [1]", "result": 0.1, "unit": "µM"}, {"measurement": "combination effect with inhibitors of the PI3K/AKT/mTOR pathway", "setting": "HCT116 cells [1]; HCT116, 72 hours", "result": "synergises as well"}, {"measurement": "P-AKT", "setting": "HCT116 cells [2]; Tubastatin A alone", "result": "time dependent increase"}, {"measurement": "acetylated form of PTEN", "setting": "HCT116 cells [6]; 24 hours of incubation", "result": "dose dependent increase"}]}
{"smiles": "CC(C)C[C@H](NC(=O)[C@H](Cc1ccccc1)NC(=O)c1cnccn1)B(O)O", "note": "[bortezomib]", "values": [{"measurement": "combination effect with HDAC-C1A on growth inhibition", "setting": "HCT116 cells [1]; HCT116, 72 hours", "result": "Synergistic effect"}]}
{"smiles": "O=C(O)CCCc1ccc(N(CCCl)CCCl)cc1", "note": "[chlorambucil, reference compound]", "values": [{"measurement": "impact of BSO on growth inhibition (GI50 ratio)", "setting": "A549 cells", "result": 8.5}, {"measurement": "sensitivity (GI50 ratio) of cells deficient in XRCC3 vs proficient", "setting": "[7]; [8]", "result": 7.8}, {"measurement": "sensitivity (GI50 ratio, fold) of cells deficient in XRCC2 vs proficient", "setting": "[7]; [8]", "result": "> 100"}, {"measurement": "sensitivity (GI50 ratio, fold) of cells deficient in XRCC5 vs proficient", "setting": "[7]; non homologous end joining", "result": "> 100"}, {"measurement": "sensitivity (GI50 ratio) of cells deficient in ERCC1 vs proficient", "setting": "[7]; nucleotide excision repair", "result": "> 100"}]}
{"smiles": "O=C1c2c(O)ccc(O)c2C(=O)c2c(NCCNCCO)ccc(NCCNCCO)c21", "note": "[mitoxantrone]", "values": [{"measurement": "fold resistance (GI50 ratio) MCF7-MX vs parental MCF7", "setting": "ABCG2", "result": 120, "unit": "fold"}, {"measurement": "reversal of resistance by FTC in MCF7-MX cells", "setting": "ABCG2", "result": 70, "unit": "fold"}]}
{"smiles": "CC[C@]1(O)C[C@@H]2CN(CCc3c([nH]c4ccccc34)[C@@](C(=O)OC)(c3cc4c(cc3OC)N(C)[C@H]3[C@@](O)(C(=O)OC)[C@H](OC(C)=O)[C@]5(CC)C=CCN6CC[C@]43[C@@H]65)C2)C1", "note": "[vinblastine]", "values": [{"measurement": "fold resistance (GI50 ratio) P-gp over-expressing 3T3 vs parental", "setting": "P-gp", "result": "> 100", "unit": "fold"}]}
